Measured values reported in patent publication US20120009280A1, “METHOD OF REDUCING THE RATE OF DEGRADATION OF A BIOLOGICAL MATERIAL” (Bio-Energy Ingredients Limited, priority 2009, published 2012).

How the values were obtained:
mould = experiment: Mould count of spent brewer's / wet distiller's grains stored at ambient temperature; format: cell-based
Method: (§1) Samples of Portion 1 (“AR”), Portion 3 (“SO”) and Portion 5 (“SH”) were then delivered to a microbiological testing facility about 15 kilometres from the treatment laboratory. Each was tested for initial total microbial, yeast and mould counts, respectively.
(§2) Separate untreated samples were similarly stored under insect-proof screens at ambient temperature for seven days (as shown in Tables 1 and 2). During the trial period the ambient temperature ranged from 11 to 33 degrees C.
(§3) The free moisture content on the initial spent brewer's grains was determined to be 78.1% m/m. After exposure to the environment for seven days, all of the samples were tested at a South African National Accreditation System (SANAS) approved microbiological testing facility. Each was tested for total micro-organism, yeast and mould counts to determine the affect of the various treatments. A similar procedure to that described in K. A. Rosentrater et al, Food Bioprocess Technol (2008) was used for the microbiological evaluation.
(§4) At the laboratory, the samples were thoroughly mixed and initially split into a first portion (Portion 1) and a second portion (Portion 2). Portion 1 was left untreated. A sample of Portion 1, was delivered immediately to a microbiological testing facility about 15 kilometres away from the treatment laboratory and was tested for initial total microbial, yeast and mould counts, respectively. No water removal prior to treatment was done in this experiment as was the case in Example 8 wherein a similar wet material was partially dewatered by pressing and the residue treated with 10% (w/w/) calcium oxide.
Samples from Portion 2 were subjected to treatment with varying amounts of a powdered, commercially-available calcium oxide containing approximately 94% calcium oxide (CaO) as shown in Table 32. […] The samples were stored in batches (according to the calcium oxide treatment) under insect-proof screens at ambient temperature for fifty six days. Separate untreated samples were similarly stored under insect-proof screens at ambient temperature for a total of 56 days. During the trial period the ambient temperature ranged from 10 to 30 degrees C. As this period was the southern hemisphere spring/early summer, the humidity as well as ambient temperatures varied widely.
as §3, with “79.4%” for “78.1%”
(§5) Samples from each treatment were drawn every seven days. No further calcium oxide treatment or agitation took place after the initial mix. In each case the entire sample was isolated and delivered to the microbiological testing facility.
(§6) The calcium oxide treatment trial described in Example 9 wherein wet distiller's grains were treated with 2.5%, 5% and 10.0% calcium oxide, respectively, versus untreated material was repeated using lower doses of calcium oxide. In this trial the same source of wet distiller's grains (again with now partial water removal prior to treatment) was treated. Also, the same protocol as described in Example 9 was applied, but at lower doses of calcium oxide i.e. 0.5%, 1.0%, 1.5%, 2.0% and 2.5%, respectively, versus untreated material.
(§7) In this trial the same source of wet distiller's grains (again with now partial water removal prior to treatment) was treated. Also, the same protocol as described in Example 9 was applied.

yeast [1] = experiment: Yeast count of spent brewer's / wet distiller's grains stored at ambient temperature; format: cell-based
yeast [2] = experiment: as above; format: cell-based; remark: listed apart in the source
Method: as §1, §2, §3, §4
Samples from Portion 2 were subjected to treatment with varying amounts of a powdered, commercially-available calcium oxide containing approximately 94% calcium oxide (CaO) as shown in Table 32. The treatments varied from 2.5 to 10% (w/w) calcium oxide addition. The samples were stored in batches (according to the calcium oxide treatment) under insect-proof screens at ambient temperature for fifty six days. Separate untreated samples were similarly stored under insect-proof screens at ambient temperature for a total of 56 days. During the trial period the ambient temperature ranged from 10 to 30 degrees C. As this period was the southern hemisphere spring/early summer, the humidity as well as ambient temperatures varied widely.
as §3, with “79.4%” for “78.1%”
as §5, §6, §7

[3] = pH of suspensions of grain samples in distilled water or PBS; settings: 1% (w/w) in distilled water
Method: The untreated sample (A) was compared visually against the corresponding quicklime-treated sample (B).
On Day 7, 10 g amounts of each sample were suspended in either 90 ml PBS or 90 ml sterile distilled water and shaken for 10 minutes. The pH of each suspension was then measured and compared.
On Day 9, 10 g of each sample was suspended in 90 ml PBS and shaken for 10 minutes. The pH was measured.

[4] = 10% Ca-DGO (w/w) granules, week 1
[5] = 10% Ca-DGO (w/w) granules, week 2
[6] = 10% Ca-DGO (w/w) granules, week 3
[7] = 10% Ca-DGO (w/w) granules, week 4
[8] = 10% Ca-DGO (w/w) granules, week 5
[9] = 10% Ca-DGO (w/w) powder, week 1
[10] = 10% Ca-DGO (w/w) powder, week 2
[11] = 10% Ca-DGO (w/w) powder, week 3
[12] = 10% Ca-DGO (w/w) powder, week 4
[13] = 10% Ca-DGO (w/w) powder, week 5
[14] = 20% Ca-DGO (w/w) powder, week 1
[15] = 20% Ca-DGO (w/w) powder, week 2
[16] = 20% Ca-DGO (w/w) powder, week 3
[17] = 20% Ca-DGO (w/w) powder, week 4
[18] = 20% Ca-DGO (w/w) powder, week 5
[19] = 40% Ca-DGO (w/w) powder, week 1
[20] = 40% Ca-DGO (w/w) powder, week 2
[21] = 40% Ca-DGO (w/w) powder, week 3
[22] = 40% Ca-DGO (w/w) powder, week 4
[23] = 40% Ca-DGO (w/w) powder, week 5

[Ca+2].[OH-].[OH-] [(CaOH)2 powder]
Mould Count (mould; dose 3.3% (w/w), week 0): <10 cfu/gram
Mould Count (mould; dose 3.3% (w/w), week 1): <10 cfu/gram
Mould Count (mould; dose 3.3% (w/w), week 2): <10 cfu/gram
Mould Count (mould; dose 3.3% (w/w), week 3): <10 cfu/gram
Mould Count (mould; dose 3.3% (w/w), week 4): <10 cfu/gram
Mould Count (mould; dose 3.3% (w/w), week 5): <10 cfu/gram
Mould Count (mould; dose 3.3% (w/w), week 6): <10 cfu/gram
Mould Count (mould; dose 3.3% (w/w), week 7): <10 cfu/gram
Mould Count (mould; dose 3.3% (w/w), week 8): <10 cfu/gram
Mould Count (mould; dose 6.6% (w/w), week 0): <10 cfu/gram
Mould Count (mould; dose 6.6% (w/w), week 1): <10 cfu/gram
Mould Count (mould; dose 6.6% (w/w), week 2): <10 cfu/gram
Mould Count (mould; dose 6.6% (w/w), week 3): <10 cfu/gram
Mould Count (mould; dose 6.6% (w/w), week 4): <10 cfu/gram
Mould Count (mould; dose 6.6% (w/w), week 5): <10 cfu/gram
Mould Count (mould; dose 6.6% (w/w), week 6): <10 cfu/gram
Mould Count (mould; dose 6.6% (w/w), week 7): <10 cfu/gram
Mould Count (mould; dose 6.6% (w/w), week 8): <10 cfu/gram
Mould Count (mould; dose 6.6% (w/w), week 9): 10 cfu/gram
Yeast Count (yeast [1]; dose 3.3% (w/w), week 0): <10 cfu/gram
Yeast Count (yeast [1]; dose 3.3% (w/w), week 1): <10 cfu/gram
Yeast Count (yeast [1]; dose 3.3% (w/w), week 2): <10 cfu/gram
Yeast Count (yeast [1]; dose 3.3% (w/w), week 3): <10 cfu/gram
Yeast Count (yeast [1]; dose 3.3% (w/w), week 4): <10 cfu/gram
Yeast Count (yeast [1]; dose 3.3% (w/w), week 5): <10 cfu/gram
Yeast Count (yeast [1]; dose 3.3% (w/w), week 6): <10 cfu/gram
Yeast Count (yeast [1]; dose 3.3% (w/w), week 7): <10 cfu/gram
Yeast Count (yeast [1]; dose 6.6% (w/w), week 0): <10 cfu/gram
Yeast Count (yeast [1]; dose 6.6% (w/w), week 1): <10 cfu/gram
Yeast Count (yeast [1]; dose 6.6% (w/w), week 3): <10 cfu/gram
Yeast Count (yeast [1]; dose 6.6% (w/w), week 4): <10 cfu/gram
Yeast Count (yeast [1]; dose 6.6% (w/w), week 5): <10 cfu/gram
Yeast Count (yeast [1]; dose 6.6% (w/w), week 6): <10 cfu/gram
Yeast Count (yeast [1]; dose 6.6% (w/w), week 7): <10 cfu/gram
Yeast Count (yeast [1]; dose 6.6% (w/w), week 8): <10 cfu/gram
Yeast Count (yeast [1]; dose 6.6% (w/w), week 9): <10 cfu/gram
Yeast Count (yeast [2]; dose 3.3% (w/w), week 8): <10 cfu/gram
Yeast Count (yeast [2]; dose 6.6% (w/w), week 2): <10 cfu/gram
pH ([3]; dose 3.3% (w/w), week 0): 11.78
pH ([3]; dose 3.3% (w/w), week 1): 11.57
pH ([3]; dose 3.3% (w/w), week 2): 8.69
pH ([3]; dose 3.3% (w/w), week 3): 9.08
pH ([3]; dose 3.3% (w/w), week 4): 8.45
pH ([3]; dose 3.3% (w/w), week 5): 7.66
pH ([3]; dose 3.3% (w/w), week 6): 9.32
pH ([3]; dose 3.3% (w/w), week 7): 7.25
pH ([3]; dose 3.3% (w/w), week 8): 9.29
pH ([3]; dose 6.6% (w/w), week 0): 12.90
pH ([3]; dose 6.6% (w/w), week 1): 12.30
pH ([3]; dose 6.6% (w/w), week 2): 11.08
pH ([3]; dose 6.6% (w/w), week 3): 11.78
pH ([3]; dose 6.6% (w/w), week 4): 9.51
pH ([3]; dose 6.6% (w/w), week 5): 7.68
pH ([3]; dose 6.6% (w/w), week 6): 10.61
pH ([3]; dose 6.6% (w/w), week 7): 7.25
pH ([3]; dose 6.6% (w/w), week 8): 9.13
pH ([3]; dose 6.6% (w/w), week 9): 8.84

[Ca+2].[O-]CC(O)CO.[O-]CC(O)CO [calcium diglyceroxide]
Mould Count (mould; [4]): 10 cfu/gram
Mould Count (mould; [5]): <10 cfu/gram
Mould Count (mould; [6]): <10 cfu/gram
Mould Count (mould; [7]): <10 cfu/gram
Mould Count (mould; [8]): <10 cfu/gram
Mould Count (mould; [9]): <10 cfu/gram
Mould Count (mould; [10]): <10 cfu/gram
Mould Count (mould; [11]): <10 cfu/gram
Mould Count (mould; [12]): 310 cfu/gram
Mould Count (mould; [13]): 1020 cfu/gram
Mould Count (mould; [14]): 10 cfu/gram
Mould Count (mould; [15]): 10 cfu/gram
Mould Count (mould; [16]): 10 cfu/gram
Mould Count (mould; [17]): 10 cfu/gram
Mould Count (mould; [18]): 10 cfu/gram
Mould Count (mould; [19]): 10 cfu/gram
Mould Count (mould; [20]): 10 cfu/gram
Mould Count (mould; [21]): 10 cfu/gram
Mould Count (mould; [22]): 10 cfu/gram
Mould Count (mould; [23]): 10 cfu/gram
Yeast Count (yeast [1]; [4]): 480 cfu/gram
Yeast Count (yeast [1]; [5]): <10 cfu/gram
Yeast Count (yeast [1]; [6]): <10 cfu/gram
Yeast Count (yeast [1]; [7]): <19 cfu/gram
Yeast Count (yeast [1]; [8]): <10 cfu/gram
Yeast Count (yeast [1]; [9]): <10 cfu/gram
Yeast Count (yeast [1]; [10]): <10 cfu/gram
Yeast Count (yeast [1]; [11]): <10 cfu/gram
Yeast Count (yeast [1]; [12]): <10 cfu/gram
Yeast Count (yeast [1]; [13]): <10 cfu/gram
Yeast Count (yeast [1]; [14]): 10 cfu/gram
Yeast Count (yeast [1]; [15]): 10 cfu/gram
Yeast Count (yeast [1]; [16]): 10 cfu/gram
Yeast Count (yeast [1]; [17]): 10 cfu/gram
Yeast Count (yeast [1]; [18]): 10 cfu/gram
Yeast Count (yeast [1]; [19]): 10 cfu/gram
Yeast Count (yeast [1]; [20]): 10 cfu/gram
Yeast Count (yeast [1]; [21]): 20 cfu/gram
Yeast Count (yeast [1]; [22]): 10 cfu/gram
Yeast Count (yeast [1]; [23]): 10 cfu/gram
pH [3, 4]: 7.88
pH [3, 5]: 7.71
pH [3, 6]: 7.44
pH [3, 7]: 7.14
pH [3, 8]: 8.37
pH [3, 9]: 9.43
pH [3, 10]: 7.32
pH [3, 11]: 7.31
pH [3, 12]: 8.01
pH [3, 13]: 7.23
pH [3, 14]: 11.47
pH [3, 15]: 11.16
pH [3, 16]: 12.00
pH [3, 17]: 11.23
pH [3, 18]: 10.83
pH [3, 19]: 11.66
pH [3, 20]: 11.50
pH [3, 21]: 12.30
pH [3, 22]: 11.52
pH [3, 23]: 11.13
